# According to the Kinase Knowledgebase extract (Sharma et al. 2016):
# Tests used:
# [1] = molecular target: EGFR (Human), P00533 [T790M/L858R]; conditions: h1975
# [2] = molecular target: EGFR (Human), P00533 [Assessment of HCC827 (EGFR Del) Cell Proliferation]
# [3] = molecular target: EGFR (human), P00533 [WT]; conditions: a549
# [4] = molecular target: EGFR (human), P00533 [L858R]
# [5] = molecular target: EGFR (Human), P00533 [T790M/L858R]
# [6] = molecular target: EGFR (human), P00533 [T790M]
# [7] = molecular target: EGFR (human), P00533 [WT]; conditions: a431
# Chain of EGFR (Human), P00533 [Assessment of HCC827 (EGFR Del) Cell Proliferation] (P00533 whole entry, looked up, stated change not applied): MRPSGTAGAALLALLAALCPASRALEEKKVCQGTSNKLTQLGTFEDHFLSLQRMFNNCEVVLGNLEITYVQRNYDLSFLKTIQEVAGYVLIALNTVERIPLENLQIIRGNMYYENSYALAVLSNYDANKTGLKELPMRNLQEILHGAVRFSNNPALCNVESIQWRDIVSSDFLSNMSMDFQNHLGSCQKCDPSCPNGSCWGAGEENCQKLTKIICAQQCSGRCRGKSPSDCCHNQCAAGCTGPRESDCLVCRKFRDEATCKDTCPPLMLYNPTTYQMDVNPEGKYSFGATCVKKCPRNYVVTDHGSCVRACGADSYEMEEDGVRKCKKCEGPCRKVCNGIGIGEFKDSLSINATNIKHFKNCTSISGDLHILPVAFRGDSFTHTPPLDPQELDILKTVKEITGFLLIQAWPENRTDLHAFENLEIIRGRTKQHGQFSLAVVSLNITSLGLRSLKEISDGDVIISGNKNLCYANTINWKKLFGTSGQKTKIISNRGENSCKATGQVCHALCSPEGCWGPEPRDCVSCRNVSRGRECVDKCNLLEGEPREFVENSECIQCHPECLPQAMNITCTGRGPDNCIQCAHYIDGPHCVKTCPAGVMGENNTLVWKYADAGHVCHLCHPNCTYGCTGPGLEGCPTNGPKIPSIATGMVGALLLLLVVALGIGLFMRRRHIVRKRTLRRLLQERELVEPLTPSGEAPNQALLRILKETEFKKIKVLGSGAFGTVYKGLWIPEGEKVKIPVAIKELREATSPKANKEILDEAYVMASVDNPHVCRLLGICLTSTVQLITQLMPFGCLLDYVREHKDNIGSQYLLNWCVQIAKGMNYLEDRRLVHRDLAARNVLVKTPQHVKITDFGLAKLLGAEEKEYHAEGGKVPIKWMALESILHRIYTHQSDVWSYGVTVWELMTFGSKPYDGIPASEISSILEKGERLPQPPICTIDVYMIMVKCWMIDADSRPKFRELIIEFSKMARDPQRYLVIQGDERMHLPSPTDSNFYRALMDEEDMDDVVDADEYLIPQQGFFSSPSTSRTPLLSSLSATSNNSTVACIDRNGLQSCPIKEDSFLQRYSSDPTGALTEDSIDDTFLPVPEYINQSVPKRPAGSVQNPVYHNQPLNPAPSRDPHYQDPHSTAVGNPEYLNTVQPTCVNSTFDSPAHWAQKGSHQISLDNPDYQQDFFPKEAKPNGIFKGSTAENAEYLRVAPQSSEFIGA
# Chain of EGFR (human), P00533 [WT] (P00533 whole entry, looked up): as the sequence (P00533 whole entry, looked up, stated change not applied) above
# Chain of EGFR (Human), P00533 [T790M/L858R] (P00533 whole entry T790M/L858R, looked up): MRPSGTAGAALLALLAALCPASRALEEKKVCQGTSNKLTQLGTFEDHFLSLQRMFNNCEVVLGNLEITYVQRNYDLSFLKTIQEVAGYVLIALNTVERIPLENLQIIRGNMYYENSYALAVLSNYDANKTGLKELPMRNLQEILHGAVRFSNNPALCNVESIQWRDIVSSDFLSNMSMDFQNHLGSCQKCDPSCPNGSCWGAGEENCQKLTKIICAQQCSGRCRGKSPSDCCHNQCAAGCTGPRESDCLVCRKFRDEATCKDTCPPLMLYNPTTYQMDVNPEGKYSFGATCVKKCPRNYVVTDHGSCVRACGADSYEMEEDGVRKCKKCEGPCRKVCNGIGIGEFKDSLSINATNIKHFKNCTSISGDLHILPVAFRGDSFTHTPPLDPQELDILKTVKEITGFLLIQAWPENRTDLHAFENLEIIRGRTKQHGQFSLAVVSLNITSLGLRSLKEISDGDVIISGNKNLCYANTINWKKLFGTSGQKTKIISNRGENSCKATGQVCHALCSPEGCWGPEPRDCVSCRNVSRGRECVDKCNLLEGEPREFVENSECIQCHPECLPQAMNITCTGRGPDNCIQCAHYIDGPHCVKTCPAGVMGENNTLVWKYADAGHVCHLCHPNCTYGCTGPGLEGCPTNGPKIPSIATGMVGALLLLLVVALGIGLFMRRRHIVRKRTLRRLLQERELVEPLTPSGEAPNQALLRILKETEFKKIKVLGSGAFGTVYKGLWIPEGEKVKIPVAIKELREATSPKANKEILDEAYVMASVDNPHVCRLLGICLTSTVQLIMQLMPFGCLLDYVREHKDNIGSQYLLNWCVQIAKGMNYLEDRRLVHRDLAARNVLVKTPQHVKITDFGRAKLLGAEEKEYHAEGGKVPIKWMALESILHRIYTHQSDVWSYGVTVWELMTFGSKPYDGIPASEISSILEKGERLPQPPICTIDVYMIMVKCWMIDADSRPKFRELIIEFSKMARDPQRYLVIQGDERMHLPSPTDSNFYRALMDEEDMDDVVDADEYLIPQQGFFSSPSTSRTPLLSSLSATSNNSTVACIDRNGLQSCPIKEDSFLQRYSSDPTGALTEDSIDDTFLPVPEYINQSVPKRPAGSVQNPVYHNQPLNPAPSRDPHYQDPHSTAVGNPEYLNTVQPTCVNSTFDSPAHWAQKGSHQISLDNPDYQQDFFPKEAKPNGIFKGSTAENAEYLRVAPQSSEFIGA
# Chain of EGFR (human), P00533 [T790M] (P00533 whole entry T790M, looked up): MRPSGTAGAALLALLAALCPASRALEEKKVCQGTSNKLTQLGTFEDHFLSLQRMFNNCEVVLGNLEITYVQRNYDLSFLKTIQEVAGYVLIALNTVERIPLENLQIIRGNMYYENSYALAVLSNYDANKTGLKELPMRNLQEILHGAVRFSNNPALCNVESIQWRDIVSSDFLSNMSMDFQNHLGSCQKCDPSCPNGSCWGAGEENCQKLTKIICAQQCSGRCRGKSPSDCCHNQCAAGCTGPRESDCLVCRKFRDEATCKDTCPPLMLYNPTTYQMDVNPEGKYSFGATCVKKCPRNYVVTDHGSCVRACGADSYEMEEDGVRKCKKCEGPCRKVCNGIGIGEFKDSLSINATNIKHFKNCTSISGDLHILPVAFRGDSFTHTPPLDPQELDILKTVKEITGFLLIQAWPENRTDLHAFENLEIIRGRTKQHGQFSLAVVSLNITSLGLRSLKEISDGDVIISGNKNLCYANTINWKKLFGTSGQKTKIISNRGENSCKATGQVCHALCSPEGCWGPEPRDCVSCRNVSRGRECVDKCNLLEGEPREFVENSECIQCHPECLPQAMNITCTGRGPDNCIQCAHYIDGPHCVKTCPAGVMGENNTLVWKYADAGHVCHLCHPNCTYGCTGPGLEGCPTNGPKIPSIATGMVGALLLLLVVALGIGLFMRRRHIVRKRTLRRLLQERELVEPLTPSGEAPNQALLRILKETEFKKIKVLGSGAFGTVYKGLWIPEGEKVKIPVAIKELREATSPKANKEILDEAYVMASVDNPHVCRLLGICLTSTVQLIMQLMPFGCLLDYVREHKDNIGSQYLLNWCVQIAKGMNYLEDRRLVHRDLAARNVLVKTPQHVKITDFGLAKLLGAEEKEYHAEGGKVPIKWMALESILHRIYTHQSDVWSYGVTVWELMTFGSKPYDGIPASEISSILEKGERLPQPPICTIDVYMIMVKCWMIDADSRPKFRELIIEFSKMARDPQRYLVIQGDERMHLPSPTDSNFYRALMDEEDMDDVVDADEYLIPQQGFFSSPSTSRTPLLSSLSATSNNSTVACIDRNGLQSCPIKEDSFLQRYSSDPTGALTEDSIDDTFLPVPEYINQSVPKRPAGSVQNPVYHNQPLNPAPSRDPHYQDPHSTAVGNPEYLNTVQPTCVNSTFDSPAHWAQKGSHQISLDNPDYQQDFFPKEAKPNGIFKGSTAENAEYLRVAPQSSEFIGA
Structure (SMILES),IC50 [1] [nM],IC50 [2] [nM],IC50 [3] [nM],IC50 [7] [nM],IC50 [4] [nM],IC50 [5] [nM],IC50 [6] [nM]
C=CC(=O)Nc1cccc(Nc2ncc(C(F)(F)F)c(Nc3ccccc3C(=O)C(N)=O)n2)c1,980,530,370,–,–,–,–
COc1cc(N2CCC(N(C)C)CC2)ccc1Nc1ncc(Cl)c(Nc2ccccc2C(=O)C(N)=O)n1,–,2630,–,–,44.3,4.08,7.52
C=CC(=O)Nc1cc(Nc2ncc(Cl)c(Nc3ccccc3C(=O)C(=O)N(C)C)n2)c(OC)cc1F,50,120,–,–,–,–,–
C=CC(=O)Nc1ccc(OC)c(Nc2ncc(Cl)c(Nc3ccccc3C(=O)C(=O)N(CC)CC)n2)c1,10,50,–,750,–,–,–
COc1cc(N2CCOCC2)ccc1Nc1ncc(Cl)c(Nc2ccccc2C(=O)C(=O)N(C)C)n1,1950,1940,–,–,–,–,–
C/C=C/C(=O)Nc1ccc(OC)c(Nc2ncc(Cl)c(Nc3ccccc3C(=O)C(=O)N(C)C)n2)c1,310,1050,1370,–,–,–,–
C=CC(=O)Nc1cc(Nc2ncc(Cl)c(Nc3ccccc3C(=O)C(=O)N(C)C)n2)c(F)cc1OC,310,1200,–,–,–,–,–
COc1cc(N2CCC(N(C)C)CC2)ccc1Nc1ncc(Cl)c(Nc2ccccc2C(=O)C(=O)N2CCOCC2)n1,2860,–,–,–,–,–,–
COc1cc(Nc2ncc(Cl)c(Nc3ccccc3C(=O)C(=O)N(C)C)n2)ccc1N1CCC(N(C)C)CC1,10,20,1890,10,–,–,–
COc1cc(N2CCN(C)CC2)ccc1Nc1ncc(Cl)c(Nc2ccccc2C(=O)C(=O)N(C)C)n1,810,1630,–,–,–,–,–
COc1cc(N2CCN(C)CC2)ccc1Nc1ncc(Cl)c(Nc2ccccc2C(=O)C(=O)N2CCOCC2)n1,1230,2360,–,–,–,–,–
C=CC(=O)Nc1ccc(OC)c(Nc2ncc(Cl)c(Nc3ccccc3C(=O)C(=O)N(C)C)n2)c1,20,20,1580,110,–,–,–
CNC(=O)C(=O)c1ccccc1Nc1nc(Nc2ccc(F)c(OC)c2)ncc1Cl,640,–,–,–,–,–,–
C=CC(=O)N1CCC(NC(=O)C(=O)c2ccccc2Nc2nc(Nc3ccc(F)c(OC)c3)ncc2Cl)CC1,190,–,–,–,–,–,–
COc1cc(Nc2ncc(Cl)c(Nc3ccccc3C(=O)C(=O)N(C)C)n2)ccc1F,–,2330,–,–,–,–,–
C=CC(=O)Nc1cc(Nc2ncc(Cl)c(Nc3ccccc3C(=O)C(=O)N(C)C)n2)ccc1OC,20,120,–,–,–,–,–
C=CC(=O)Nc1cc(Nc2ncc(Cl)c(Nc3ccccc3C(=O)C(=O)NC)n2)ccc1OC,90,450,–,–,–,–,–
C=CC(=O)Nc1cc(Nc2ncc(Cl)c(Nc3ccccc3C(=O)C(=O)N(C)C)n2)c(OC)cc1N1CCN(C)CC1,50,30,620,50,–,–,–

# Continued by falling IC50 [1], values first:
IC50 [1] [nM],IC50 [2] [nM],IC50 [3] [nM],IC50 [7] [nM],Structure (SMILES),IC50 [4] [nM],IC50 [5] [nM],IC50 [6] [nM]
1130,900,–,–,CNC(=O)C(=O)c1ccccc1Nc1nc(Nc2ccc(N3CCC(N(C)C)CC3)cc2OC)ncc1Cl,–,–,–
860,1230,–,260,COc1cc(N2CCC(N(C)C)CC2)ccc1Nc1ncc(Cl)c(Nc2ccccc2C(=O)C(=O)N(C)C)n1,–,–,–
840,940,–,–,COc1cc(N2CCC(N(C)C)CC2)ccc1Nc1ncc(Cl)c(Nc2ccccc2C(=O)C(=O)NO)n1,–,–,–
650,1200,–,–,C=CC(=O)Nc1cc(Nc2ncc(Cl)c(Nc3ccccc3C(=O)C(=O)NC)n2)c(F)cc1OC,–,–,–
210,540,–,50,COc1cc(N2CCN(C(C)=O)CC2)ccc1Nc1ncc(Cl)c(Nc2ccccc2C(=O)C(=O)N(C)C)n1,–,–,–
150,870,2080,–,CNC(=O)C(=O)c1ccccc1Nc1nc(Nc2ccc(N3CCN(C)CC3)c(OC)c2)ncc1Cl,–,–,–
100,270,–,–,C=CC(=O)Nc1cccc(Nc2ncc(Cl)c(Nc3ccccc3C(=O)C(=O)NC)n2)c1,–,–,–
10,20,–,210,C=C(CN(C)CCN(C)C)C(=O)Nc1ccc(OC)c(Nc2ncc(Cl)c(Nc3ccccc3C(=O)C(=O)N(C)C)n2)c1,–,–,–
10,30,40,100,C=C(CN1CCOCC1)C(=O)Nc1cccc(Nc2ncc(Cl)c(Nc3ccccc3C(=O)C(=O)N(C)C)n2)c1,–,–,–
10,70,640,–,C=CC(=O)Nc1cccc(Nc2ncc(Cl)c(Nc3ccccc3C(=O)C(=O)N(C)C)n2)c1,–,–,–
